The values below come from patent US4061645A, “2-Trichloromethyl-5-methylsulfinyl-1,3,4-thiadiazole” (Schering Aktiengesellschaft, priority 1972, dated 1977).

In one test the test system is Asperqilus niger. Nature of the test: Agar test (Example 7), Aspergillus. The class given is cell-based. To be noted: 10 ppm; 5 days at 22° C; control 100. The protocol:
(§1) The fungicidal action of the agents according to the invention was tested in artificial nutrient media against plant-pathogenic fungi in Petri dishes (agar test). The procedure was to sterilize the medium consisting of 2% malt extract and 1.5% agar-agar powder. Before the solidification of the medium, the active substances were added to it, mixing thoroughly, so that the medium received 10 parts of active substance per million (ppm). After the solidification of the medium, the latter was inoculated with a platinum dropper which contained 100 spores each of the fungi to be tested, and after five days at 22° C, an evaluation was made by measuring the diameter of the colonies in mm.

The next test relates to Damping-off Fungi. Nature of the test: Cotton seed disinfection, normal compost soil (Example 6). The class given is in vivo. To be noted: 100 mg active ingr. per kg of seed; 10% formulation; 15 days. The protocol: Cotton seeds disinfected with 10% formulations were seeded in normal compost soil (Damping-off Fungi), 25 grains per concentration. After a cultivation time of 15 days at 22°-25° C, the number of germinated sound cotton seedlings and their weight as fresh plants were determined.

For the next test, the system named is Botrytis cinerea. Nature of the test: Agar test (Example 7), Botrytis. The class given is cell-based. To be noted: 10 ppm; 5 days at 22° C; control 100. The protocol:
as §1

Test [1] relates to Rhizoctonia solani. Nature of the test: Rhizoctonia solani infested compost soil, marrow peas (Example 3). The class given is in vivo. To be noted: for Weight of fresh plant: 3 weeks; for Number of sound peas after 3 wks.: of 25 grains. An excerpt:
Steamed compost soil was inoculated with mycelium of Rhizoctonia solani. After homogeneous mixture of the products with the infested soil, the products were present in the form of 20% powder preparations, the seeding of 25 grains of marrow peas of the variety "Miracle of Kelvedon" per concentration was effected without waiting period in clay dishes holding 1 liter of soil. The table lists the number of germinated sound peas, the weight of the fresh plant, and a root evaluation after a cultivation period of three weeks at 22°-25° C.

In a further test the test system is Meloidogyne incognita. As to the kind of experiment: Nematocidal action, infested compost soil, cucumber seeds (Example 8). To be noted: 30 days. The class given is in vivo. As for the experimental part: The products as 20% powder preparations were homogeneously admixed with a compost soil heavily infested by root gal nematodes. Without a waiting period, 20 cucumber seeds per concentration were seeded. After a cultivation time of 30 days at a temperature of 23°-25° C, the nematocidal action was evaluated by counting the root galls formed in the waterbath. The following table states the reduction of attack in percent. In the control, an average of 90 root galls per seedling had formed.

In test [2] the test system is Rhizoctonia solani. As to the kind of experiment: Limit concentration of soil-fungicidal effectiveness, Rhizoctonia solani, infested soil seeded with peas (Example 1). The class given is in vivo. The conditions noted are these: 20 to 23 days, 22°-25° C; for minimal effective concentration: soil, 480 h, read-out: Limit concentration of the fungicidal effectiveness. The protocol: (§2) Limit concentrations of the soil-fungicidal effectiveness at homogeneous mixture of the products with the infested soil. Basic condition in the evaluation are a sound root formation without fungus necroses and germination of the seed of at least 90% compared with the result obtained in steamed soil. Per concentration there were seeded 25 grains of peas of the variety "Miracle of Kelvedon" (marrow pea) without a waiting period. The cultivation time in the tests was 20 to 23 days at a temperature of 22°-25° C. Four commercial products were included in the test series.
Rhizoctania solani: -- Steamed compost soil was inoculated with mycelium of Rhizoctonia solani.

In a further test the test system is Helminthosporium sativum. Nature of the test: Agar test (Example 7), Helminthosporium. The conditions noted are these: 10 ppm; 5 days at 22° C; control 100. The class given is cell-based. The protocol:
as §1

The subject of test [3] is Pythium ultimum. Nature of the test: Pythium ultimum infested compost soil, marrow peas (Example 2). The conditions noted are these: for Weight of fresh plant: 3 weeks; for Number of sound peas after 3 wks.: of 25 grains. The class given is in vivo. An excerpt:
Steamed compost soil was inoculated with mycelium of Pythium ultimum.

The subject of a further test is Stemphylium ilicis. As to the kind of experiment: Agar test (Example 7), Stemphylium. The class given is cell-based. The conditions noted are these: 10 ppm; 5 days at 22° C; control 100. The protocol:
as §1

Test [4] relates to Colletotrichum gloeosporioides. Nature of the test: Agar test (Example 7), Colletotrichum. The class given is cell-based. The conditions noted are these: 10 ppm; 5 days at 22° C; control 100. The protocol:
as §1

The test system of test [5] is Fusarium oxysporum f. callistephi. As to the kind of experiment: Fusarium infested compost soil, Callistephus chinesis seedlings (Example 5). The class given is in vivo. The conditions noted are these: of 4 seedlings. An excerpt:
Steamed compost soil was inoculated with a spore suspension of Fusarium oxysporum f. callistephi. After homogeneous mixture of the products with the infested soil, the products were present as 20% powder preparations, and after a waiting period of 8 days, there were set out per concentration 4 seedlings of Callistephus chinesis, master aster "Sun Ray" as host plants.

For test [6], the system named is Pythium ultimum. Nature of the test: Limit concentration of soil-fungicidal effectiveness, Pythium ultimum, infested soil seeded with peas (Example 1). The conditions noted are these: 20 to 23 days, 22°-25° C. The class given is in vivo. The protocol: as §2
Pythium ultimum: -- Steamed compost soil was inoculated with mycelium of Pythium ultimum

Another test deals with Thielaviopsis basicola. Nature of the test: Control of Thielaviopsis basicola on tobacco (Example 10). The class given is in vivo. The arrangement: key to Attack 0-5: 0: no attack; 1: very slight attack; 2: slight attack; 3: medium attack; 4: strong attack; 5: very strong attack. To be noted: five weeks. As for the experimental part:
Control of Thielaviopsis basicola on tobacco.
A 10% powder preparation of 2-trifluoromethyl-5-methylsulfonyl-1,3,4-thiadiazole was homogeneously admixed to a soil heavily infested by Thielaviopsis basicola. After a reaction time of one week, tobacco seedlings of the variety Nicotiana tabacum var. "White Burley" were set out and cultivated for five weeks in the greenhouse at 22°-32° C. The attack and weight of the fresh plant are evident from the table.

The mark [7] stands for this setting: 10 mg active ingr. per liter of soil.
Where [8] appears, read: 20 mg active ingr. per liter of soil.
[9] abbreviates: 30 mg active ingr. per liter of soil.
Setting [10] is: 50 mg active ingredient per liter of soil.
The mark [11] stands for this setting: 100 mg active ingredient per liter of soil.
Setting [12] is: 40 mg active ingr. per liter of soil.

With `C[S+]([O-])c1nnc(C(Cl)Cl)s1` (centres unmarked) [Compound 3, 2-dichloromethyl-5-methylsulfinyl-1,3,4-thiadiazole], the “diameter of the colonies” value in the test on Asperqilus niger was found to be 50 mm; with Botrytis cinerea, 36 mm; in the test with Helminthosporium sativum, 0 mm; in the test with Stemphylium ilicis, 0 mm; in test [4], 0 mm. In addition, in the test with Damping-off Fungi, the “Sound plants in %” value is 100%. Also, the “Weight of fresh plant” value was 29 g with Damping-off Fungi; 0 g in the test with Rhizoctonia solani [1] (setting [7]); 2 g in the test with Rhizoctonia solani [1] (setting [8]); 21 g in the test with Rhizoctonia solani [1] (setting [9]); 22 g in the test on Pythium ultimum [3] (setting [7]); 24 g in the test with Pythium ultimum [3] (setting [8]). In addition, the “Weight of fresh plant” value in the test with Pythium ultimum [3] (setting [9]) came out at 22 g. In addition, the “Number of sound peas after 3 wks.” value in the test on Rhizoctonia solani [1] (setting [7]) was 0; in the test with Rhizoctonia solani [1] (setting [8]) it was 2; in the test on Rhizoctonia solani [1] (setting [9]), 22; in the test with Pythium ultimum [3] (setting [7]), 24; in the test on Pythium ultimum [3] (setting [8]) it was 24; in the test on Pythium ultimum [3] (setting [9]), 25. Moreover, the “Nematocidal action in % (reduction of attack)” value with Meloidogyne incognita (40 mg per liter of soil) and in the test on Meloidogyne incognita (60 mg per liter of soil) was 100% in each case. Also, the minimal effective concentration in the test with Rhizoctonia solani [2] was 30 µg/mL. In addition, the “Number of attacked plants after 3 weeks” value in [5] (setting [10]) and in [5] (setting [11]) was 0 each time.

Consider `CS(=O)(=O)c1nnc(C(Cl)(Cl)Cl)s1` [Compound 21, 2-trichloromethyl-5-methylsulfonyl-1,3,4-thiadiazole], for which the “diameter of the colonies” value (with Asperqilus niger; with Botrytis cinerea; in the test with Helminthosporium sativum; in the test with Stemphylium ilicis; in test [4]) was 0 mm each time. Besides, the “Sound plants in %” value with Damping-off Fungi was 100%. The “Weight of fresh plant” value is given as 33 g with Damping-off Fungi, 11 g with Rhizoctonia solani [1] (setting [7]), 17 g in the test on Rhizoctonia solani [1] (setting [8]) and 17 g in the test with Rhizoctonia solani [1] (setting [9]). Also, the results for the “Number of sound peas after 3 wks.” value in the test on Rhizoctonia solani [1] (setting [7]), with Rhizoctonia solani [1] (setting [8]) and with Rhizoctonia solani [1] (setting [9]) were 17, 24 and 24, respectively. Besides, in the test on Rhizoctonia solani [2], the minimal effective concentration came to 10 µg/mL. For the same compound, the “Number of attacked plants after 3 weeks” value in [5] (setting [10]) and in [5] (setting [11]) was 0 in each case.

Regarding `C[S+]([O-])c1nnc(C(F)(F)Cl)s1` (centres unmarked) [Compound 55], the “Limit concentration of the fungicidal effectiveness” value (shortened to “Limit concentration”) in the test on Pythium ultimum [6] and in the test on Rhizoctonia solani [2] was 10 mg of active substance per lit in each case.

With `CCCS(=O)(=O)c1nnc(C(Cl)Cl)s1` [Compound 19, 2-dichloromethyl-5-propylsulfonyl-1,3,4-thiadiazole], the “diameter of the colonies” value (with Asperqilus niger; in the test with Botrytis cinerea; in the test with Helminthosporium sativum; in the test with Stemphylium ilicis; in test [4]) was 0 mm throughout. Further, the “Nematocidal action in % (reduction of attack)” value in the test with Meloidogyne incognita (40 mg per liter of soil) is 72%; in the test on Meloidogyne incognita (60 mg per liter of soil), 82%. Also, in the test with Rhizoctonia solani [2], the minimal effective concentration was found to be 50 µg/mL. Also, the “Number of attacked plants after 3 weeks” value in test [5] (setting [10]) and in test [5] (setting [11]) was 0 in each case.

Consider `C[S+]([O-])c1nnc(C(Cl)(Cl)Cl)s1` (centres unmarked) [Compound 8, 2-trichloromethyl-5-methylsulfinyl-1,3,4-thiadiazole], for which the “diameter of the colonies” value (in the test on Asperqilus niger; with Botrytis cinerea; in the test on Helminthosporium sativum; in the test with Stemphylium ilicis; in test [4]) was 0 mm each time. Also, the “Sound plants in %” value in the test on Damping-off Fungi stood at 96%. Moreover, the “Weight of fresh plant” value with Damping-off Fungi is listed as 29 g; in the test on Rhizoctonia solani [1] (setting [7]), 17 g; in the test with Rhizoctonia solani [1] (setting [8]), 17 g; in the test with Rhizoctonia solani [1] (setting [9]), 17 g; in the test with Pythium ultimum [3] (setting [7]), 12 g; in the test on Pythium ultimum [3] (setting [8]) it was 22 g. The “Weight of fresh plant” value in the test on Pythium ultimum [3] (setting [9]) worked out at 22 g. Besides, the “Number of sound peas after 3 wks.” value was determined as 21 in the test with Rhizoctonia solani [1] (setting [7]); 24 in the test with Rhizoctonia solani [1] (setting [8]); 24 in the test on Rhizoctonia solani [1] (setting [9]); 19 in the test on Pythium ultimum [3] (setting [7]); 24 with Pythium ultimum [3] (setting [8]); 25 in the test with Pythium ultimum [3] (setting [9]). In addition, the minimal effective concentration in the test with Rhizoctonia solani [2] came out at 10 µg/mL. Moreover, the “Number of attacked plants after 3 weeks” value in [5] (setting [10]) and in test [5] (setting [11]) was 0 each time.

As for `CC(C)CC(Br)c1nnc(S(C)(=O)=O)s1` (centres unmarked) [Compound 53, 2-(1-bromoisopentyl)-5-methylsulfonyl-1,3,4-thiadiazole], in the test on Pythium ultimum [6], the “Limit concentration” value is listed as “no effect”. In addition, the minimal effective concentration in the test on Rhizoctonia solani [2] came to 100 µg/mL.

On to `CS(=O)(=O)c1nnc(C(F)(F)Cl)s1` [Compound 54], for which the “Limit concentration” value is 10 mg of active substance per lit with Pythium ultimum [6] and 20 mg of active substance per lit with Rhizoctonia solani [2].

For the compound `CS(=O)(=O)c1nnc(C(F)(F)F)s1` [Compound 1, 2-trifluoromethyl-5-methylsulfonyl-1,3,4-thiadiazole], the “diameter of the colonies” value (in the test on Asperqilus niger; in the test with Botrytis cinerea; with Helminthosporium sativum; with Stemphylium ilicis; in test [4]) was 0 mm in each case. In addition, in the test on Rhizoctonia solani [2], the minimal effective concentration was determined as 25 µg/mL. The “Attack 0-5” value in the test on Thielaviopsis basicola (setting [8]) turned out to be 0.5; in the test with Thielaviopsis basicola (setting [9]) it was 0; with Thielaviopsis basicola (setting [12]), 0. In addition, the entries for the “Weight of fresh plant (leaves and stems)” value in the test on Thielaviopsis basicola (setting [8]), in the test on Thielaviopsis basicola (setting [9]) and in the test on Thielaviopsis basicola (setting [12]) were 115 g, 118 g and 104 g, respectively. Besides, the results for the “Weight of roots (air-dry)” value in the test with Thielaviopsis basicola (setting [8]), with Thielaviopsis basicola (setting [9]) and in the test on Thielaviopsis basicola (setting [12]) were 11 g, 11 g and 9 g, respectively. For the same compound, the “Weight of fresh plant” value with Pythium ultimum [3] (setting [7]) came out at 20 g; in the test with Pythium ultimum [3] (setting [8]), 19 g; in the test on Pythium ultimum [3] (setting [9]) it was 19 g. Moreover, the “Number of sound peas after 3 wks.” value with Pythium ultimum [3] (setting [7]) was determined as 25; in the test on Pythium ultimum [3] (setting [8]), 22; with Pythium ultimum [3] (setting [9]), 23.

Regarding `CCCCC(Br)c1nnc(S(C)(=O)=O)s1` (centres unmarked) [Compound 52, 2-(1-bromopentyl)-5-methylsulfonyl-1,3,4-thiadiazole], the “Limit concentration” value in the test with Pythium ultimum [6] is reported as “no effect”. For the same compound, the minimal effective concentration with Rhizoctonia solani [2] was 100 µg/mL.
